The text below walks through data of publication PMC7563019 (Acta Pharmaceutica Sinica. B, 2020).

This experiment deals with LSD1 (Homo sapiens, UniProt O60341). Kind of experiment: LSD1 enzymatic assay. In kind it is biochemical. The following applies: for inhibition at 1 µM: read-out: Inhibition rate (%) at 1 μmol/L against LSD1.

Structures are written as SMILES.

Compound `Cc1ccc(Nc2nc(SCC(=O)NC(=O)Nc3ccccn3)nc(-c3ccc(C(C)C)cc3)c2C#N)cc1` [Compound 16b] yielded an IC50 of more than 125000 nM.

Compound `Cc1ccc(-c2nc(SCc3cn(CC(=O)NC(=O)Nc4ccccn4)nn3)nc(Nc3cccc(Cl)c3)c2C#N)cc1` [Compound 14p] displayed an IC50 of 232 ± 2 nM.

Take `Cc1ccc(Nc2nc(SCc3cn(CC(=O)NC(=O)Nc4ccccn4)nn3)nc(-c3ccc(Br)cc3)c2C#N)cc1` [Compound 14d]: the IC50 is 3820 ± 582 nM and the inhibition at 1 µM was 46.3%.

The compound `N#Cc1c(Nc2cccc(Cl)c2)nc(SCc2cn(Cc3ccccc3Cl)nn2)nc1-c1ccccc1` [Compound 10c] had an IC50 of 6310 ± 719 nM.

Regarding `Cc1ccc(Nc2nc(SCc3cn(CC(=O)NC(=O)Nc4ccccn4)nn3)nc(-c3ccc(Cl)cc3)c2C#N)cc1` [Compound 14c], the IC50 is 531 ± 2 nM, the “fold stronger LSD1 inhibitory activity than compound 14a” value is reported as “about 3.5 fold” and the inhibition at 1 µM was determined as 91.4%.

In the case of `C#CCSc1nc(Nc2ccc(C)cc2)c(C#N)c(-c2ccccc2)n1` [Compound 7f], the IC50 was more than 64000 nM.

`N#Cc1c(Nc2ccc(Cl)cc2)nc(SCc2cn(Cc3ccccc3Cl)nn2)nc1-c1ccccc1` [Compound 10b] had an IC50 of 628 ± 27 nM.

For orientation: IC50 means the midpoint of a concentration-inhibition curve. A higher IC50 goes with lower potency.
